Values belong to the compound of their own block, whether it stands above or below them.
Tests used:
[1] = tested on: Human immunodeficiency virus 1; test: Antiviral activity against recombinant luciferase-expressing HIV-1 infected in HEK293T cells incubated for 48 hr by luciferase assay based luminometer analysis; format: functional, organism-based; conditions: Human immunodeficiency virus 1, HEK-293T
[2] = tested on: Human immunodeficiency virus; test: Antiviral activity against HIV infected in human HeLa cells expressing CD4-LTR-beta-gal assessed as inhibition of syncytia formation measured after 15 hrs by 5-bromo-4-chloro-3-indolyl-beta-D-galactoside staining based colorimetry assay; format: functional, organism-based; conditions: Human immunodeficiency virus 1, HeLa
[3] = Antiproliferative activity against human PBMC cells assessed as cell growth inhibition incubated for 10 mins by CFSE staining based flow cytometric analysis; format: toxicity
T-cell line = test: Immunomodulatory activity in human T cells assessed as inhibition of IL-2 production incubated for 15 mins by FACSCalibur flow cytometry analysis; format: functional, cell-based; conditions: 0.25 h
[4] = molecular target: Neuronal acetylcholine receptor; alpha9/alpha10 (Homo sapiens, UniProt Q9GZZ6+Q9UGM1); test: Inhibition of human nAChR alpha9alpha10 expressed in Xenopus laevis oocytes holding potential of -70 mV by voltage-clamp based electrophysiological method; format: cell-based
Neuronal acetylcholine receptor; alpha9/alpha10, sequence (Q9UGM1 whole entry): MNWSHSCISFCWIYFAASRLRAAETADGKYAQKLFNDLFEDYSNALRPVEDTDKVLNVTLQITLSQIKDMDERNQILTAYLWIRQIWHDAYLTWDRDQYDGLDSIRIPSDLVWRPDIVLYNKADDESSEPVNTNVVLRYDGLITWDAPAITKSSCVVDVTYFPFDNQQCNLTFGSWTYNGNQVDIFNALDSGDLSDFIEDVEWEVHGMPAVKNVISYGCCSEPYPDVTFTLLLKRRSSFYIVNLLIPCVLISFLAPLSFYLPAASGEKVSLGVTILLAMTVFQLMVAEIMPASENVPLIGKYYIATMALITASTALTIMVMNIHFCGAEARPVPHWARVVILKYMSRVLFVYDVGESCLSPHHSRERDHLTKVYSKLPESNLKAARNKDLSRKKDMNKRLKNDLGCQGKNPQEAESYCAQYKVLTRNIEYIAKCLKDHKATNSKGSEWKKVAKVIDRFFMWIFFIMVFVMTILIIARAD
Neuronal acetylcholine receptor; alpha9/alpha10, sequence (Q9GZZ6 whole entry): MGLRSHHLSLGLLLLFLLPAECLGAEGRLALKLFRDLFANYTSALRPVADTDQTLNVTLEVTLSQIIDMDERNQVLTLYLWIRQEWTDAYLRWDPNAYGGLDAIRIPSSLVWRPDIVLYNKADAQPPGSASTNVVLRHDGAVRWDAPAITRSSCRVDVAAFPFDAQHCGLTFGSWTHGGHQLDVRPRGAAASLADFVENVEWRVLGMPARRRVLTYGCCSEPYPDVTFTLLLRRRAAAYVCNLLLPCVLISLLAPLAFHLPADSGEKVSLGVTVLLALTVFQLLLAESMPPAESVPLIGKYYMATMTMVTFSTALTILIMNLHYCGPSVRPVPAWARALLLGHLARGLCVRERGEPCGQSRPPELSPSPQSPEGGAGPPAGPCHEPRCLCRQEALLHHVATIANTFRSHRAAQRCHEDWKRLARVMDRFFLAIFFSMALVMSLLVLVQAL

IC50 [1]: 2.1 nM | IC50 [2]: 0.55 nM
Compound: Ac-WMEWDREINNYTSLIEESQNQQEKNEQELL-NH2

Compound: CC(C)C[C@@H]1NC(=O)CNC(=O)[C@H](CC(N)=O)NC(=O)[C@H](CCCNC(=N)N)NC(=O)[C@H]([C@@H](C)O)NC(=O)[C@@H]2CSSC[C@@H]3NC(=O)[C@H]([C@@H](C)O)NC(=O)CNC(=O)CNC(=O)[C@H](C(C)C)NC(=O)[C@@H]4CSSC[C@H](NC(=O)[C@H]([C@@H](C)O)NC(=O)[C@H](CSSC[C@H](NC(=O)[C@H](C(C)C)NC(=O)[C@@H]5CCCN5C1=O)C(=O)NCC(=O)N[C@@H](CCC(=O)O)C(=O)N[C@@H]([C@@H](C)O)C(=O)N4)NC(=O)CNC(=O)[C@@H]1CCCN1C(=O)[C@H]([C@@H](C)O)NC(=O)[C@H](CC(N)=O)NC3=O)C(=O)N[C@@H](CO)C(=O)N[C@@H](Cc1c[nH]c3ccccc13)C(=O)N1CCC[C@H]1C(=O)N[C@@H](C(C)C)C(=O)N2
IC50 at 10 min [3]: 2900 nM

IC50 (T-cell line): 1900 nM
Compound: CC(C)C[C@@H]1NC(=O)CNC(=O)[C@H](CC(N)=O)NC(=O)[C@H](CCCNC(=N)N)NC(=O)[C@H]([C@@H](C)O)NC(=O)[C@@H]2CSSC[C@@H]3NC(=O)[C@H]([C@@H](C)O)NC(=O)CNC(=O)CNC(=O)[C@H](C(C)C)NC(=O)[C@@H]4CSSC[C@H](NC(=O)[C@H](CCCCN)NC(=O)[C@H](CSSC[C@H](NC(=O)[C@H](C(C)C)NC(=O)[C@@H]5CCCN5C1=O)C(=O)NCC(=O)N[C@@H](CCC(=O)O)C(=O)N[C@@H]([C@@H](C)O)C(=O)N4)NC(=O)CNC(=O)[C@@H]1CCCN1C(=O)[C@H]([C@@H](C)O)NC(=O)[C@H](CC(N)=O)NC3=O)C(=O)N[C@@H](CO)C(=O)N[C@@H](Cc1c[nH]c3ccccc13)C(=O)N1CCC[C@H]1C(=O)N[C@@H](C(C)C)C(=O)N2

Compound: C[C@@H](O)[C@@H]1NC(=O)[C@@H]2CSSC[C@H](C(=O)N[C@@H](Cc3ccc(O)cc3)C(=O)O)NC(=O)[C@H](CCC(N)=O)NC(=O)[C@H](Cc3ccc(O)c(I)c3)NC(=O)[C@H](CCCNC(=N)N)NC(=O)[C@H](CSSC[C@H](NC(=O)CN)C(=O)N2)NC(=O)[C@H](CCCNC(N)=O)NC(=O)[C@@H]2CCCN2C(=O)[C@H](CC(=O)O)NC1=O
IC50 [4]: 1.5 nM
